In PubChem BioAssay AID1259407 (Chemical Carcinogenesis Research Information System (CCRIS), 2018) one finds mutagenic call data, which are given here for 4 compounds.

Active and inactive are the calls of the source. The rule behind the calls is not given here.

This data set relates to CCRIS mutagenicity, Ames/micronucleus/aberration tests. Kind of data set: CCRIS mutagenicity studies.
The mark [1] stands for this setting: Test System: AMES SALMONELLA TYPHIMURIUM, Strain/Indicator: TA98, Metabolic Activation: HAMSTER, LIVER, S-9, AROCLOR 1254 (10%), Method: PREINCUBATION
Where [2] appears, read: Test System: AMES SALMONELLA TYPHIMURIUM, Strain/Indicator: TA98, Metabolic Activation: NONE, Method: PREINCUBATION
Setting [3] is: Test System: AMES SALMONELLA TYPHIMURIUM, Strain/Indicator: TA98, Metabolic Activation: RAT, LIVER, S-9, AROCLOR 1254 (10%), Method: PREINCUBATION
Setting [4] is: Test System: AMES SALMONELLA TYPHIMURIUM, Strain/Indicator: TA100, Metabolic Activation: HAMSTER, LIVER, S-9, AROCLOR 1254 (10%), Method: PREINCUBATION
[5] abbreviates: Test System: AMES SALMONELLA TYPHIMURIUM, Strain/Indicator: TA100, Metabolic Activation: NONE, Method: PREINCUBATION
The mark [6] stands for this setting: Test System: AMES SALMONELLA TYPHIMURIUM, Strain/Indicator: TA100, Metabolic Activation: RAT, LIVER, S-9, AROCLOR 1254 (10%), Method: PREINCUBATION
Setting [7] is: Test System: AMES SALMONELLA TYPHIMURIUM, Strain/Indicator: TA1535, Metabolic Activation: HAMSTER, LIVER, S-9, AROCLOR 1254 (10%), Method: PREINCUBATION
[8] abbreviates: Test System: AMES SALMONELLA TYPHIMURIUM, Strain/Indicator: TA1535, Metabolic Activation: NONE, Method: PREINCUBATION
Setting [9] is: Test System: AMES SALMONELLA TYPHIMURIUM, Strain/Indicator: TA1535, Metabolic Activation: RAT, LIVER, S-9, AROCLOR 1254 (10%), Method: PREINCUBATION
[10] abbreviates: Test System: AMES SALMONELLA TYPHIMURIUM, Strain/Indicator: TA1537, Metabolic Activation: NONE, Method: PREINCUBATION
Where [11] appears, read: Test System: AMES SALMONELLA TYPHIMURIUM, Strain/Indicator: TA98, Metabolic Activation: NONE, Method: STANDARD PLATE.
Setting [12] is: Test System: AMES SALMONELLA TYPHIMURIUM, Strain/Indicator: TA100, Metabolic Activation: NONE, Method: STANDARD PLATE.

Regarding `Nc1cc(Cl)ccc1O`, the mutagenic call is “active; positive (structural changes and ploidy). structural changes not dose related” (End Point: In vitro chromosomal aberrations, Test System: Chinese hamster lung (CHL/IU) cells, Metabolic Activation: Rat, Liver, S9, Phenobarbital and 5,6-benzoflavone); “inactive; negative” (Test System: AMES SALMONELLA TYPHIMURIUM, Strain/Indicator: TA97, Metabolic Activation: HAMSTER, LIVER, S-9, AROCLOR 1254 (10%), Method: PREINCUBATION); “inactive; negative” (Test System: AMES SALMONELLA TYPHIMURIUM, Strain/Indicator: TA97, Metabolic Activation: HAMSTER, LIVER, S-9, AROCLOR 1254 (30%), Method: PREINCUBATION); “inactive; negative” (Test System: AMES SALMONELLA TYPHIMURIUM, Strain/Indicator: TA97, Metabolic Activation: NONE, Method: PREINCUBATION); “inactive; negative” (Test System: AMES SALMONELLA TYPHIMURIUM, Strain/Indicator: TA97, Metabolic Activation: RAT, LIVER, S-9, AROCLOR 1254 (10%), Method: PREINCUBATION); “inactive; negative” (Test System: AMES SALMONELLA TYPHIMURIUM, Strain/Indicator: TA97, Metabolic Activation: RAT, LIVER, S-9, AROCLOR 1254 (30%), Method: PREINCUBATION). For the same compound, the mutagenic call is, setting by setting: under setting [1], “inactive; negative”; under setting [2], “inactive; negative”; under setting [3], “inactive; negative”; (Test System: AMES SALMONELLA TYPHIMURIUM, Strain/Indicator: TA98, Metabolic Activation: RAT, LIVER, S-9, PHENOBARBITAL AND BETA-NAPHTHOFLAVONE, Method: PREINCUBATION) “inactive; negative”; under setting [4], “inactive; negative”; under setting [5], “inactive; negative”. The mutagenic call was “inactive; negative” under setting [6]; “active; positive” (Test System: AMES SALMONELLA TYPHIMURIUM, Strain/Indicator: TA1535, Metabolic Activation: HAMSTER, LIVER, S-9, AROCLOR 1254 (5%), Method: PREINCUBATION); “active; positive” under setting [7]; “active; positive” (Test System: AMES SALMONELLA TYPHIMURIUM, Strain/Indicator: TA1535, Metabolic Activation: HAMSTER, LIVER, S-9, AROCLOR 1254 (30%), Method: PREINCUBATION); “inactive; negative” under setting [8]; “active; positive” (Test System: AMES SALMONELLA TYPHIMURIUM, Strain/Indicator: TA1535, Metabolic Activation: RAT, LIVER, S-9, AROCLOR 1254 (5%), Method: PREINCUBATION). The mutagenic call was “active; positive” under setting [9]; “inactive; negative” (Test System: AMES SALMONELLA TYPHIMURIUM, Strain/Indicator: TA1535, Metabolic Activation: RAT, LIVER, S-9, AROCLOR 1254 (30%), Method: PREINCUBATION); “inactive; negative” (Test System: AMES SALMONELLA TYPHIMURIUM, Strain/Indicator: TA1535, Metabolic Activation: RAT, LIVER, S-9, PHENOBARBITAL AND BETA-NAPHTHOFLAVONE, Method: PREINCUBATION); “inactive; negative” under setting [10]; “inactive; negative” (Test System: E. COLI, Strain/Indicator: WP2UVRA, Metabolic Activation: NONE, Method: PREINCUBATION); “inactive; negative” (Test System: E. COLI, Strain/Indicator: WP2UVRA, Metabolic Activation: RAT, LIVER, S-9, PHENOBARBITAL AND BETA-NAPHTHOFLAVONE, Method: PREINCUBATION).
Turning to `CC1=CC(C)(C)Nc2ccccc21`, the mutagenic call is “inactive; negative” under setting [1]; “inactive; negative” under setting [2]; “inactive; negative” under setting [11]; “inactive; negative” under setting [3]; “inactive; negative” (Test System: AMES SALMONELLA TYPHIMURIUM, Strain/Indicator: TA98, Metabolic Activation: S-9, Method: STANDARD PLATE); “inactive; negative” under setting [4]. The mutagenic call reads like this: under setting [5], “inactive; negative”; under setting [12], “inactive; negative”; under setting [6], “inactive; negative”; (Test System: AMES SALMONELLA TYPHIMURIUM, Strain/Indicator: TA100, Metabolic Activation: S-9, Method: STANDARD PLATE) “inactive; negative”; under setting [7], “inactive; negative”; under setting [8], “inactive; negative”. Further, the mutagenic call under setting [9] is “inactive; negative”; the mutagenic call (Test System: AMES SALMONELLA TYPHIMURIUM, Strain/Indicator: TA1537, Metabolic Activation: HAMSTER, LIVER, S-9, AROCLOR 1254 (10%), Method: PREINCUBATION) was “inactive; negative”; the mutagenic call under setting [10] is “inactive; negative”; the mutagenic call (Test System: AMES SALMONELLA TYPHIMURIUM, Strain/Indicator: TA1537, Metabolic Activation: RAT, LIVER, S-9, AROCLOR 1254 (10%), Method: PREINCUBATION) was “inactive; negative”.
For the compound `O[Te](O)(O)(O)(O)O`, for the setting “End Point: IN VITRO MICRONUCLEUS, Test System: HUMAN PERIPHERAL LYMPHOCYTES, Metabolic Activation: NONE, Method: FISH (CENTROMERIC SIGNAL CONTENT)”, the mutagenic call is “active; positive”.
For `CCCC[C@@H](C)[C@@H](OC(=O)C[C@@H](CC(=O)O)C(=O)O)[C@H](C[C@@H](C)C[C@H](O)CCCC[C@@H](O)C[C@H](O)[C@H](C)N)OC(=O)C[C@@H](CC(=O)O)C(=O)O`, the mutagenic call is “inactive; negative” (Test System: AMES SALMONELLA TYPHIMURIUM, Strain/Indicator: TA97A, Metabolic Activation: NONE, Method: STANDARD PLATE); “inactive; negative” (Test System: AMES SALMONELLA TYPHIMURIUM, Strain/Indicator: TA97A, Metabolic Activation: RAT, LIVER, S-9, AROCLOR 1254, Method: STANDARD PLATE); “inactive; negative” under setting [11]; “inactive; negative” (Test System: AMES SALMONELLA TYPHIMURIUM, Strain/Indicator: TA98, Metabolic Activation: RAT LIVER S-9, Method: STANDARD PLATE); “inactive; negative” (Test System: AMES SALMONELLA TYPHIMURIUM, Strain/Indicator: TA98, Metabolic Activation: RAT, LIVER, S-9, AROCLOR 1254, Method: STANDARD PLATE); “inactive; negative” under setting [12]. For the same compound, the mutagenic call was “inactive; negative” (Test System: AMES SALMONELLA TYPHIMURIUM, Strain/Indicator: TA100, Metabolic Activation: RAT LIVER S-9, Method: STANDARD PLATE); “inactive; negative” (Test System: AMES SALMONELLA TYPHIMURIUM, Strain/Indicator: TA100, Metabolic Activation: RAT, LIVER, S-9, AROCLOR 1254, Method: STANDARD PLATE); “inactive; negative” (Test System: AMES SALMONELLA TYPHIMURIUM, Strain/Indicator: TA102, Metabolic Activation: NONE, Method: STANDARD PLATE); “inactive; negative” (Test System: AMES SALMONELLA TYPHIMURIUM, Strain/Indicator: TA102, Metabolic Activation: RAT LIVER S-9, Method: STANDARD PLATE); “inactive; negative” (Test System: AMES SALMONELLA TYPHIMURIUM, Strain/Indicator: TA102, Metabolic Activation: RAT, LIVER, S-9, AROCLOR 1254, Method: STANDARD PLATE).
